pIC50: −log10 of the molar value. Several values for one entry are separate records, joined by “and”; a condition that tells them apart may be missing. Identical values can stand only once.
Test system: A375 multi-cell spheroids with HUVEC/MSC, viability
Assay: Anticancer human tumor A375 cell line growth inhibition [GQUAD];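 also: spheroids exposed to compounds for seven days before readout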
Conditions: for viability, T/C: stronger effect = lower value
From the text: DNA G-quadruplex Stabilizer Agents in Combinations in Complex Spheroids
A high-throughput screen of multi-cell type tumor spheroids was designed to identify active combinations of DNA G-quadruplex stabilizer agents and targeted small molecules. Complex spheroids include a stromal component modeled by human endothelial cells (HUVEC) and fibroblasts modeled by human mesenchymal stem cells (MSCs). The concentration ranges selected for each drug and investigational agent were based upon clinically achievable concentrations if the clinical Cmax of the agent was known.
Compounds. The drugs and investigational agents: pidnarulex (CX-5461; NSC782164), APTO-253 (NSC789042), BRACO-19 (NSC847499), peposertib (NSC802822), ceralasertib (NSC780249), elimusertib (NSC800525), camonsertib (NSC841442), AZD-1390 (NSC803789), olaparib (NSC753686), talazoparib (NSC767125), ART-558 (NSC835418), sotorasib (NSC818433), MRTX-1133 (NSC836407), SN-38 (NSC673596), topotecan (NSC609699), etoposide (NSC141540), doxorubicin (NSC123127), gemcitabine (NSC613327), 5-fluorouracil (NSC19893), paclitaxel (NSC125973), vemurafenib (NSC761431), panobinostat (NSC761190), R-306465 (JNJ-16241199; NSC773264), adavosertib (NSC754352), TP-3654 (NSC805149), carboplatin (NSC241240), KSQ-4279 (NSC840948), and staurosporine (NSC755774) were obtained from the National Cancer Institute (NCI) Developmental Therapeutics Program Chemical Repository (34). The FDA-approved anticancer drug set is available from the NCI Developmental Therapeutics Program. […] The stock solutions were prepared in dimethyl sulfoxide (DMSO, Sigma-Aldrich, St. Louis, MO, cat. D2650) at 800-fold the tested concentration and stored at -70 degrees C prior to their use. All drugs and investigational agents were tested over a range starting from a high concentration at or near the clinical Cmax and decreasing in half-log increments. If the clinical Cmax for an agent had not been determined, the highest concentration tested was 10 microM.
2.3 Cell Culture. All cells were maintained in an incubator at 37 degrees C and 5% CO2 with 95% humidity. The PDC lines were cultured according to standard operating procedures established by the NCI PDMR. All PDCs were thawed and cultured in Matrigel-coated flasks prepared with a working solution of 1X Ham's F-12 nutrient mix, without supplementation (Invitrogen, cat. 11765054), 100 U/mL penicillin-streptomycin (Invitrogen, cat. 15140122), and 2.5% Matrigel (Corning Inc., cat. 354248) for the first three passages. The 857933-349-R-J2-PDC line was cultured in 6C/Colon 1B media, which includes advanced DMEM/F-12 (Thermo Fisher Scientific, cat. 12634028), 10 mM HEPES (Thermo Fisher Scientific, cat. 15630080), 1X GlutaMAX supplement (Thermo Fisher Scientific, cat. 35050061), 0.1 mg/mL primocin (InvivoGen, cat. ant-pm-2), 10% defined fetal bovine serum, heat inactivated (HyClone Laboratories Inc., cat. SH30070.03HI), 50% L-WRN conditioned media (ATCC, cat. CRL-3276), 1.25 mM N-Acetyl-L-cysteine (Sigma-Aldrich, cat. A9165), 10 mM nicotinamide (Sigma-Aldrich, cat. N0636), 1X B-27 supplement (Thermo Fisher Scientific, cat. 17504044), 1X N-2 supplement (Thermo Fisher Scientific, cat. 17502048), 10 microM Y-27632 dihydrochloride (Tocris Bioscience, cat. 1254), and 50 ng/mL human EGF recombinant protein (Thermo Fisher Scientific, cat. PHG0311). The 485176-168-R4-J1-PDC line was cultured in Panc media, which includes all 6C/Colon 1B media components plus 100 ng/mL human FGF-10 (Thermo Fisher Scientific, cat. 100-26), 500 nM SB-431542 (Selleckchem, cat. S1067), and gastrin (Tocris, cat. 3006).
[…]

[1] = curve of first compound, second compound 0.0316 µM
[2] = curve of first compound, second compound 0.1 µM
[3] = curve of first compound, second compound 0.316 µM
[4] = curve of first compound, second compound 1 µM
[5] = curve of first compound, second compound 3.16 µM
[6] = curve of first compound, second compound 10 µM
[7] = second compound 0.0316 µM, first compound 0.0316 µM
[8] = second compound 0.0316 µM, first compound 0.1 µM
[9] = second compound 0.0316 µM, first compound 0.316 µM
[10] = second compound 0.0316 µM, first compound 1 µM
[11] = second compound 0.0316 µM, first compound 3.16 µM
[12] = second compound 0.0316 µM, first compound 10 µM
[13] = second compound 0.1 µM, first compound 0.0316 µM
[14] = second compound 0.1 µM, first compound 0.1 µM
[15] = second compound 0.1 µM, first compound 0.316 µM
[16] = second compound 0.1 µM, first compound 1 µM
[17] = second compound 0.1 µM, first compound 3.16 µM
[18] = second compound 0.1 µM, first compound 10 µM
[19] = second compound 0.316 µM, first compound 0.0316 µM
[20] = second compound 0.316 µM, first compound 0.1 µM
[21] = second compound 0.316 µM, first compound 0.316 µM
[22] = second compound 0.316 µM, first compound 1 µM
[23] = second compound 0.316 µM, first compound 3.16 µM
[24] = second compound 0.316 µM, first compound 10 µM
[25] = second compound 1 µM, first compound 0.0316 µM
[26] = second compound 1 µM, first compound 0.1 µM
[27] = second compound 1 µM, first compound 0.316 µM
[28] = second compound 1 µM, first compound 1 µM
[29] = second compound 1 µM, first compound 3.16 µM
[30] = second compound 1 µM, first compound 10 µM
[31] = second compound 3.16 µM, first compound 0.0316 µM
[32] = second compound 3.16 µM, first compound 0.1 µM
[33] = second compound 3.16 µM, first compound 0.316 µM
[34] = second compound 3.16 µM, first compound 1 µM
[35] = second compound 3.16 µM, first compound 3.16 µM
[36] = second compound 3.16 µM, first compound 10 µM
[37] = second compound 10 µM, first compound 0.0316 µM
[38] = second compound 10 µM, first compound 0.1 µM
[39] = second compound 10 µM, first compound 0.316 µM
[40] = second compound 10 µM, first compound 1 µM
[41] = second compound 10 µM, first compound 3.16 µM
[42] = second compound 10 µM, first compound 10 µM

Work on `C#Cc1c(F)ccc2cc(O)cc(-c3ncc4c(N5CC6CCC(C5)N6)nc(OCC56CCCN5CC(F)C6)nc4c3F)c12` (stereo not drawn) + Cc1[nH]c2ccc(F)cc2c1-c1nc2c3cccnc3c3ncccc3c2[nH]1 yielded a pIC50 [1] of less than 5.00, a pIC50 [2] of less than 5.00 and a pIC50 [3] of less than 5.00. The pIC50 [4] was less than 5.00, the pIC50 [5] was 5.27 and the pIC50 [6] was less than 5.00. It also gave a viability, T/C [7] of 102%, a viability, T/C [8] of 99.5% and a viability, T/C [9] of 97.1%. For the same compound, the viability, T/C [10] was 107%, the viability, T/C [11] was 97.2% and the viability, T/C [12] was 97.1%. For the same compound, the viability, T/C [13] was 104%, the viability, T/C [14] was 104% and the viability, T/C [15] was 99.4%. The viability, T/C [16] was 102%, the viability, T/C [17] was 101% and the viability, T/C [18] was 102%. It also gave a viability, T/C [19] of 105%, a viability, T/C [20] of 104% and a viability, T/C [21] of 96.7%. For the same compound, the viability, T/C [22] was 101%, the viability, T/C [23] was 101% and the viability, T/C [24] was 101%. For the same compound, the viability, T/C [25] was 113%, the viability, T/C [26] was 104% and the viability, T/C [27] was 94.2%. It also gave a viability, T/C [28] of 97.2%, a viability, T/C [29] of 105% and a viability, T/C [30] of 103%. It also gave a viability, T/C [31] of 81.8%, a viability, T/C [32] of 71.6% and a viability, T/C [33] of 74.2%. For the same compound, the viability, T/C [34] was 84.7%, the viability, T/C [35] was 62.3% and the viability, T/C [36] was 35.6%. For the same compound, the viability, T/C [37] was 86.5%, the viability, T/C [38] was 86.9% and the viability, T/C [39] was 94.4%. The viability, T/C [40] was 79.8%, the viability, T/C [41] was 78% and the viability, T/C [42] was 61.8%.

In the case of `CC1COCCN1c1cc(-c2ccnn2C)c2ccnc(-c3ccn[nH]3)c2n1` (stereo not drawn), the viability, T/C (compound 0.0316 µM) was 106% and 103% and 105%, the viability, T/C (compound 0.1 µM) was 87.6% and 77% and 93.2% and the viability, T/C (compound 0.316 µM) was 75.4% and 49.7% and 69.2%. The viability, T/C (compound 1 µM) was 38.9% and 25% and 31.8%, the viability, T/C (compound 3.16 µM) was 13.2% and 9.89% and 11.6% and the viability, T/C (compound 10 µM) was 11.8% and 10.5% and 11.2%. For the same compound, the pIC50 (curve of compound) was 6.17 and 6.53 and 6.25.

`Cn1ncnc1[C@H]1c2n[nH]c(=O)c3cc(F)cc(c23)N[C@@H]1c1ccc(F)cc1` was tested, and the viability, T/C (compound 0.000999 µM) was 93.9% and 104% and 90.5%, the viability, T/C (compound 0.00316 µM) was 98% and 101% and 97% and the viability, T/C (compound 0.00999 µM) was 104% and 103% and 98.8%. The viability, T/C (compound 0.0316 µM) was 108% and 106% and 99.2%, the viability, T/C (compound 0.0999 µM) was 112% and 104% and 98.9% and the viability, T/C (compound 0.316 µM) was 94.1% and 91.5% and 92.8%. The pIC50 (curve of compound) was less than 6.50.

`O=C(NO)c1cnc(N2CCN(S(=O)(=O)c3ccc4ccccc4c3)CC2)nc1` + CN(C)c1ccc(Nc2c3ccc(NC(=O)CCN4CCCC4)cc3nc3cc(NC(=O)CCN4CCCC4)ccc23)cc1 gave a pIC50 [1] of 6.73, a pIC50 [2] of 6.72 and a pIC50 [3] of 6.73. It also gave a pIC50 [4] of 6.72, a pIC50 [5] of 6.72 and a pIC50 [6] of 6.72. For the same compound, the viability, T/C [7] was 121%, the viability, T/C [8] was 105% and the viability, T/C [9] was 4.84%. For the same compound, the viability, T/C [10] was 0.29%, the viability, T/C [11] was 0.27% and the viability, T/C [12] was 0.29%. For the same compound, the viability, T/C [13] was 107%, the viability, T/C [14] was 108% and the viability, T/C [15] was 5.35%. It also gave a viability, T/C [16] of 0.26%, a viability, T/C [17] of 0.22% and a viability, T/C [18] of 0.25%. The viability, T/C [19] was 108%, the viability, T/C [20] was 103% and the viability, T/C [21] was 4.36%. For the same compound, the viability, T/C [22] was 0.25%, the viability, T/C [23] was 0.21% and the viability, T/C [24] was 0.23%. It also gave a viability, T/C [25] of 104%, a viability, T/C [26] of 110% and a viability, T/C [27] of 5.11%. It also gave a viability, T/C [28] of 0.26%, a viability, T/C [29] of 0.2% and a viability, T/C [30] of 0.22%. For the same compound, the viability, T/C [31] was 103%, the viability, T/C [32] was 110% and the viability, T/C [33] was 4.25%. The viability, T/C [34] was 0.25%, the viability, T/C [35] was 0.22% and the viability, T/C [36] was 0.24%. It also gave a viability, T/C [37] of 102%, a viability, T/C [38] of 107% and a viability, T/C [39] of 6.02%. For the same compound, the viability, T/C [40] was 0.26%, the viability, T/C [41] was 0.93% and the viability, T/C [42] was 0.25%.

— PubChem BioAssay AID2060485 (Molecular Pharmacology Branch, DTP, NCI, 2025)
